Laboratory results taken from PMC12643354, “From Oxygen to Tellurium: The Impact of the Chalcogen on Nucleophilicities and Basicities of Isochalcogenourea Catalysts” (Angewandte Chemie (International Ed. in English), 2025).

Key:
[1] = Brønsted basicity pKaH by chemical shift imaging NMR method in DMSO and MeCN; conditions: for Brønsted basicity pKaH(DMSO): in DMSO; for Brønsted basicity pKaH(MeCN): in MeCN
Protocol: Recently, Wiskur's group reported potentiometrically determined pK aH values (that is, the pK a of the conjugate acids) of achiral ITUs based on the BTM and DHPB scaffolds in aqueous media.^[ [89], [128] ^] […] In this work, we applied this NMR spectroscopic method to determine the pK aH values of further IChUs in DMSO and MeCN (Supporting Information).
First, a stock solution containing the analyte, two basic indicators and tetramethyl silane was prepared with the respective solvent (DMSO or acetonitrile).
Then 5-10 mg of acid were weighed into a NMR tube and subsequently covered with glass beads.
Figure S50: 5-10 mg of acid in Figure S51: Cover with 1 mm
Afterwards, 550 μL of the stock solution was layered carefully over the glass beads and the acid. The sample is then put in a 28 °C water bath (for DMSO) for 20 - 24h or left on the bench at 22 °C (for acetonitrile) for 1.5 - 2 h and then the NMR measurement was carried out at 20 °C.
Figure S52: Overlay the acid with the Figure S54: Visualized gradient after stock solution of two indicators and the 18h in DMSO (with Bromthymolblue) […]
Figure S53: Development of gradients in temperated water S145 […]
13.4 Indicator and Acid Data
Table S67: Limiting shifts (δH for the fully protonated and δL for the free base), pKas and abbreviations of indicators and acids in acetonitrile.
Table S68: Limiting shifts (δH for the fully protonated and δL for the free base), pKas and abbreviations of indicators

[2] = Kinetics of IChU reactions with reference electrophile (lil)2CH+ (stopped-flow photometry); format: physicochemical; conditions: E = −10.04, dichloromethane, 20 °C
Source text: (§1) In order to systematically investigate the influence of the chalcogen atom on the nucleophilicity of DHPB‐derived IChUs (Ch = O, S, Se, and Te), we utilized Mayr's benzhydrylium methodology.^[ [107] ^]
(§2) In accordance with observations in previous studies on ITU reactivity,^[ [119] ^] mixing the strongly colored benzhydrylium tetrafluoroborates 18 with excess IChUs in dichloromethane gave rise to decolorization of the solutions due to the formation of isochalcogenouronium tetrafluoroborates 19, which are colourless (Figure 3a). […] To establish pseudo first‐order conditions and to secure a sufficient decay of the benzhydrylium's absorbance during the course of the reactions, the IChUs were employed at higher concentrations than the benzhydrylium ions. First‐order rate constants k obs (s^−1) were determined by fitting the mono‐exponential decay function in Equation (2) to the decreasing absorbance (A) of 18 during their reaction with the IChUs as exemplified for the reaction of ITeU3 with (ind)2CH^+ in Figure 3b. […]
(§3) First‐order rate constants k obs correlated linearly with the IChU concentration. Therefore, second‐order rate constants k 2 (L mol^−1 s^−1) were determined from the slope of the linear regression curves (Figure 3c ^[ [95] ^]). […]

[3] = Kinetics of IChU reactions with reference electrophile (thq)2CH+ (stopped-flow photometry); format: physicochemical; conditions: E = −8.22, dichloromethane, 20 °C
Source text: as §1, §2, §3

[4] = Kinetics of IChU reactions with reference electrophile (mor)2CH+ (stopped-flow photometry); format: physicochemical; conditions: E = −5.53, dichloromethane, 20 °C
Source text: as §1, §2, §3

[5] = Kinetics of IChU reactions with reference electrophile (dpa)2CH+ (stopped-flow photometry); format: physicochemical; conditions: E = −4.72, dichloromethane, 20 °C
Source text: as §1, §2, §3

Structure (SMILES) | Brønsted basicity pKaH(DMSO) [1] | Brønsted basicity pKaH(MeCN) [1] | Second-order rate constant k2 exptl [2] [M⁻¹ s⁻¹] | Second-order rate constant k2 exptl [3] [M⁻¹ s⁻¹] | Second-order rate constant k2 exptl [4] [M⁻¹ s⁻¹] | Second-order rate constant k2 exptl [5] [M⁻¹ s⁻¹]
c1ccc2c(c1)[Se]C1=NCCCN12 [ISeU3, SeDHPB] | 8.3 | 17.9 | 1980 | 38100 |  | 
c1ccc2c(c1)OC1=NCCCN12 [IU3, ODHPB] | 6.5 | 16.9 |  |  | 185000 | 896000
